In publication PMC6542793, “The identification of small molecule inhibitors of the plant inositol phosphorylceramide synthase which demonstrate herbicidal activity” (Scientific Reports, 2019):
“And” between values parts separate entries of the source, which are not always exact repeats. Identical values can stand only once. “Also recorded” adds a separate entry of the source. Starred links: 1 amine or outer side, 2 acyl side, 3 side chain; linkers in the order of their positions; H or OH if unused. Non-standard residues stand in square brackets, D forms with d. Residues, ends and D or L forms follow the SMILES beside them. X1 = CC[C@@H](C)[C@@H](O[*:1])C(=O)[*:2]; NMeVal(β-OH) = CN[C@H](C(=O)O)C(C)(C)O; NMeF = CN[C@@H](Cc1ccccc1)C(=O)O; aIle = CC[C@@H](C)[C@H](N)C(=O)O; NMeV = CN[C@H](C(=O)O)C(C)C

How the values were obtained:
AtIPCS2 [1] = biological target: T1, AtIPCS2 (Arabidopsis thaliana, UniProt Q9SH93); assay: Secondary screening, 96-well plate microsomal in vitro IPCS enzyme assay (AtIPCS2); type: biochemical; details: AtIPCS2 IC50 (95% CI), microsomal membranes, dose response 100 µM to 46 nM, triplicate
T1 construct: The complete open reading frames of AtIPCS2 and AUR1p were amplified from cDNA or GenEZ ORF Clones; made in house; microsomal membranes
T1 sequence (Q9SH93 1-305): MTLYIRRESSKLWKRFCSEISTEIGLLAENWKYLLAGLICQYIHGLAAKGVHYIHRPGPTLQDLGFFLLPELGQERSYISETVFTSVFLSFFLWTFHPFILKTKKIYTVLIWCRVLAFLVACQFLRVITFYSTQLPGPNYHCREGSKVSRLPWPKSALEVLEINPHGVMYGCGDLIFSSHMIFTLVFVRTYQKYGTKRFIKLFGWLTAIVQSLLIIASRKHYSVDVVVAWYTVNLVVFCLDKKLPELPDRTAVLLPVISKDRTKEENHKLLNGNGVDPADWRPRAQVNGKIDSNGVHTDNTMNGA
Description: (§1) In the secondary screening stage the previously described microsomal-based in vitro IPCS assay was adapted and utilised. Initially, all 106 selective hits from the primary screen were tested, in duplicate, at 10 µM.
(§2) Microsomal material was prepared from MSY23-3C pESC-LEU_AtIPCS2 and MSY23-3C pESC-LEU_AUR1 as previously described. IPCS turnover was assayed using HPTLC (Merck) and imaged using a Fuji FLA−3000 reader and AIDA Image Analyser® software (version 3.52) as previously described. Subsequently, a 96-well plate assay was formatted based on the protocol described by Mina et al.[17]. Following optimisation of substrate concentration and incubation time, each compound at the desired concentration (100 µM to 46 nM; in triplicate), was incubated in 96-well plates (Corning® Costar®) in phosphate buffer (71.4 mM, pH 7.0) with soybean PI (100 µM, final concentration, Avanti), NBD-C6-phytoceramide (15 µM; ThermoFisher) and microsomal membranes (0.3–0.4 Units[17]). Following incubation for 60 minutes (or 40 minutes for MSY23-3C pESC-LEU_AUR1 membranes) at 30 °C the reaction was quenched by the addition of 200 µl methanol per well, the reaction product separated using exchange chromatography in 96-well filter plates (Millipore)[17] and the fluorescence measured at Ex460/Em540 using a fluorescence Microplate Reader (Biotek Synergy H4 with Gen5™). […]

Arabidopsis seedlings = assay: In vivo screening, Arabidopsis seedlings grown on agar; parameters: species or system A. thaliana (Col0)
Description: In vivo testing of the phenylamidine Compound 1 was undertaken against Arabidopsis seedlings grown on agar.
A. thaliana (Col0) seedlings were grown for 10 days on 0.8% Murashige and Skoog (MS) agar and then transferred to 1.2% MS agar containing compounds at the desired concentrations or DMSO as a control. Plants were grown at 20 °C under 16 hour day/8 hour night photoperiod.

Aur1p [2] = biological target: T2, Aur1p (Saccharomyces cerevisiae, UniProt P36107); assay: Secondary screening, 96-well plate microsomal in vitro IPCS enzyme assay (Aur1p control); type: biochemical
T2 construct: The complete open reading frames of AtIPCS2 and AUR1p were amplified from cDNA or GenEZ ORF Clones; made in house; microsomal membranes
T2 sequence (P36107 1-401): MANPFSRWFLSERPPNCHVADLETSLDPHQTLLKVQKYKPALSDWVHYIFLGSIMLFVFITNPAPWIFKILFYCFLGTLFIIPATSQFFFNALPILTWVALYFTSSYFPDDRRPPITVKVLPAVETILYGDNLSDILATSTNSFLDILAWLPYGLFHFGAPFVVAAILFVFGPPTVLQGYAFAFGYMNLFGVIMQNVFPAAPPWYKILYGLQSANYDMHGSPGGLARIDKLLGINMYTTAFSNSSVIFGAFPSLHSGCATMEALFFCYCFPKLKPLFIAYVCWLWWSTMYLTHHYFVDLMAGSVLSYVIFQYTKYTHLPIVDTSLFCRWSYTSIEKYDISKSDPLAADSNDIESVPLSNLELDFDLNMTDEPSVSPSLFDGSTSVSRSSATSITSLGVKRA
T2 sequence (Q06346 1-221 partner): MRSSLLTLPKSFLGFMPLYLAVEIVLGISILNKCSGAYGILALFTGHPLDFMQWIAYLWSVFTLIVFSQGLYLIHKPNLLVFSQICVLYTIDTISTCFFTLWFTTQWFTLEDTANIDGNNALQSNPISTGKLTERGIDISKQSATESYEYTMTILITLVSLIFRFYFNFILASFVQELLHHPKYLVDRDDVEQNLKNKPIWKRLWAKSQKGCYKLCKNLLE
Description: as §1, §2

AtIPCS2 [3] = biological target: T1, AtIPCS2; assay: HPTLC in vitro IPCS assay of microsomal extracts, NBD-IPC production (AtIPCS2); type: biochemical; details: presence vs absence of AbA
Description: In the quadruple pdr1∆ pdr3∆ pdr16∆ pdr17∆ strain, AUR1 was deleted and replaced by a HIS3 selectable marker, with growth supported by expression of the essential AUR1 gene from the plasmid pRS316-AUR1 under uracil selection. […] (Fig. 2).
Figure 2 HPTLC separation of in vitro assayed Aur1p and AtIPCS2 showing the production of NBD-IPC in the presence (+) and absence (−) of AbA. […] NBD-Cer is the substrate, NBD-C6-phytoceramide.
as §2, with “Following optimisation of substrate concentration and incubation time, each compound at the desired concentration (100 µM to 46 nM; in triplicate), was incubated in 96-well plates (Corning® Costar®) in phosphate buffer (71.4 mM, pH 7.0) with soybean PI (100 µM, final concentration, Avanti), NBD-C6-phytoceramide (15 µM; ThermoFisher) and microsomal membranes (0.3–0.4 Units[17]).” left out

fungal IPCS = test system: fungal IPCS; parameters: method as in PMID 8593016, PMID 9405490, PMID 9614099, PMID 17420565, PMID 19644519; details: inhibitors of the fungal IPCS; cited from earlier work
Aur1p [4] = biological target: T2, Aur1p; assay: HPTLC in vitro IPCS assay of microsomal extracts, NBD-IPC production (Aur1p); type: biochemical; details: presence vs absence of AbA
Description: Microsomal material was prepared from MSY23-3C pESC-LEU_AtIPCS2 and MSY23-3C pESC-LEU_AUR1 as previously described[33]. IPCS turnover was assayed using HPTLC (Merck) and imaged using a Fuji FLA−3000 reader and AIDA Image Analyser® software (version 3.52) as previously described[17].

Cc1cc(Oc2ccc(C#N)c(CC(C)(C)C)c2)c(C)cc1N=CN1CCCCC1 [Compound 1]
IC50 (AtIPCS2 [1]): 4.02 µM and < 5 µM | phenotype of treated seedlings (Arabidopsis seedlings; 7 day old seedlings on agar containing 10 and 40 µM, compared to DMSO control): clear purple patches associated with anthocyanin biosynthesis in response to stress[47], and an absence of lateral root development | effects on wild type Col-0 Arabidopsis seedlings, in words (Arabidopsis seedlings; in vivo screening, dose response): dose dependent effects with decreased lateral root development, and distinctive purple leaf patches; also recorded: induce the plant stress response | concentration at which treatment restricted growth and led to purple leaf patches (Arabidopsis seedlings; tested at 3.7, 11, 33 and 100 µM, compared to DMSO control): ≥ 11 µM | IC50 (Aur1p [2]): > 50 µM

CC[C@@H](C)[C@@H]1NC(=O)[C@@H]2CCCN2C(=O)[C@H](Cc2ccccc2)N(C)C(=O)[C@H](Cc2ccccc2)NC(=O)[C@H](C(C)C)N(C)C(=O)[C@@H]([C@H](C)CC)OC(=O)[C@H](C(C)(C)O)N(C)C(=O)[C@H](CC(C)C)NC(=O)[C@H](C(C)C)N(C)C1=O [aureobasidin A] (cyclo(F[NMeF]P[aIle][NMeV]L[NMeVal(β-OH)][X1][NMeV]))
sensitivity of AtIPCS2 activity (NBD-IPC production) to the compound (AtIPCS2 [3]): insensitive | IC50 against Saccharomyces cerevisiae (fungal IPCS): low nano-molar | sensitivity of Aur1p activity (NBD-IPC production) to the compound (Aur1p [4]): Only the fungal enzyme Aur1p is sensitive

CCCCCCCCCC[C@H](C)[C@@H](O)[C@@H](C)/C=C(C)/C=C(\C)C(=O)[C@H](C)/C=C(\C)C(=O)O[C@H](CO)[C@@H](O)[C@H](O)C(=O)O [khafrefungin]
IC50 against Saccharomyces cerevisiae (fungal IPCS): low nano-molar

haplofungin
IC50 against Saccharomyces cerevisiae (fungal IPCS): low nano-molar

pleofungin
IC50 against Saccharomyces cerevisiae (fungal IPCS): low nano-molar

rustimicin
IC50 against Saccharomyces cerevisiae (fungal IPCS): low nano-molar
